Measurements as given in patent US20230406849A1, “KRAS INHIBITORS FOR TREATMENT OF CANCERS” (TYLIGAND BIOSCIENCE (SHANGHAI) LIMITED, priority 2020, published 2023).
Read-outs that look alike come from different tables or passages of the source.

What was measured:
Assay type in all cases: cell-based
BaF3-KRas-G12C-H95D = test: Proliferation of KRas G12C inhibitor-resistant cell model, CTG; details: Adagrasib acquired-resistance model
Procedure: (§1) Each of the above cell lines was cultured in the indicated complete medium at 37° C., 5% CO2, and the cells in the logarithmic growth phase were harvested and counted using a platelet counter. The cell viability was detected by the trypan blue exclusion method to ensure that the cell viability was above 90%. Cell density was adjusted using complete medium, and then inoculated into 96-well cell culture plates, at 90 μL and a total of 3000 cells per well. The cells in the 96-well plate were cultured at 37° C. and 5% CO2.
(§2) 10 μL of each diluted compound solution was transferred to the corresponding experimental well of the 96-well cell plate and each concentration was set three replicate wells. The cells in the 96-well plate that had been dosed were incubated at 37° C. and 5% CO2 for 72 hours, and then CTG analysis was performed.
(§3) The CTG reagent was melted, and the cell plate was moved to room temperature to equilibrate for 30 minutes. 100 μL of CTG solution was added to each well, and shaken on an orbital shaker for 5 minutes to fully lyse the cells. The plate was kept at room temperature for 20 minutes to stabilize the luminescence signal, and the luminescence value of each well was scanned and the data was collected. GraphPad Prism 7.0 software was used to analyze the data, and the nonlinear Sigmoidal regression was used to fit the data to obtain a dose-response curve. The relative and absolute IC50 values and the maximum inhibition rate were calculated according to conventional methods well known to those skilled in the art.
(§4) Inhibition rate %=[1−(LumDrug to be tested−LumCulture medium control)/(LUMCell control−LumCulture medium control)]×100%
(§5) Acquired resistance is one of the key factors that affect the treatment efficacy of KRas G12C inhibitors.
(§6) All cell lines used in this assay were provided by KYinno Biotechnology Co., Ltd.

BaF3-KRas-G12C-Y96D = test: as above; details: Adagrasib acquired-resistance model
Procedure: as §1, §2, §3, §4, §5, §6

BaF3-KRas-G12C-R68S = test: as above; details: Adagrasib acquired-resistance model
Procedure: as §1, §2, §3, §4, §5, §6

BaF3-KRas-G12C-Y96C = test: as above; details: Adagrasib acquired-resistance model
Procedure: as §1, §2, §3, §4, §5, §6

BaF3-KRas-G12C-H95Q = test: as above; details: Adagrasib acquired-resistance model
Procedure: as §1, §2, §3, §4, §5, §6

SW837 (KRas-G12C) = test: KRas mutant cell proliferation, CellTiter-Glo (CTG); details: Homo sapiens, rectal cancer, 72 h; for inhibition at up to 10 µM: top concentration 10 μM, read-out: Maximum inhibition %
Excerpt: (§7) In this assay, the CellTiter-Glo (CTG) kit of Promega was used to evaluate the anti-proliferation activities of the compounds of the present disclosure on 12 KRas mutant tumor cell lines.
(§8) [Test materials]: RPMI1640 medium (Hyclone, Cat #SH30809.01); fetal bovine serum (FBS) (Gibco, Cat #10099-141); phosphate buffer PBS (Solarbio, Cat #P1020-500); DMSO (Sigma, Cat #D8418-1L); detection kit CTG (Promega, Cat #G7573); 96-well cell culture plate (Thermo, Cat #3100 Series); Vibrator (QILINBEIER, Cat #QB-9001); Incubator (Thermo Scientific, Cat #Model 3100 series); microscope (OLYMPUS, Cat #CKX41SF); multi-function microplate reader (BMG LABTECH, Cat #CLARIOstar® Plus); biological safety cabinet (Thermo, Cat #Model 1300 Series A2). All cell lines used in the following assay were purchased from KYinno Biotechnology Co., Ltd.
as §1
as §2, with “The test compound solution in culture medium was prepared, the top concentration was 10 μM, serially diluted at a dilution factor of 3.16 to afford 9 concentrations. 10” for “10”
as §3, §4

HCT116 (KRas-G13D) = test: as above; details: Homo sapiens, HCT-116, colorectal cancer, 72 h; for inhibition at up to 10 µM: top concentration 10 μM, read-out: Maximum inhibition %
Excerpt: as §7, §8, §1
as §2, with “The test compound solution in culture medium was prepared, the top concentration was 10 μM, serially diluted at a dilution factor of 3.16 to afford 9 concentrations. 10” for “10”
as §3, §4

H23 (KRas-G12C) = test: as above; details: lung cancer, 72 h; for inhibition at up to 10 µM: top concentration 10 μM, read-out: Maximum inhibition %
Excerpt: as §7, §8, §1
as §2, with “The test compound solution in culture medium was prepared, the top concentration was 10 μM, serially diluted at a dilution factor of 3.16 to afford 9 concentrations. 10” for “10”
as §3, §4

Kyse-410 (KRas-G12C) = test: as above; details: Homo sapiens, esophageal cancer, 72 h; for inhibition at up to 10 µM: top concentration 10 μM, read-out: Maximum inhibition %
Excerpt: as §7, §8, §1
as §2, with “The test compound solution in culture medium was prepared, the top concentration was 10 μM, serially diluted at a dilution factor of 3.16 to afford 9 concentrations. 10” for “10”
as §3, §4

A549 (KRasG12S) = test: as above; details: Homo sapiens, A549, KRas G12S, lung cancer, 72 h; for inhibition at up to 10 µM: top concentration 10 μM, read-out: Maximum inhibition %
Excerpt: as §7, §8, §1
as §2, with “The test compound solution in culture medium was prepared, the top concentration was 10 μM, serially diluted at a dilution factor of 3.16 to afford 9 concentrations. 10” for “10”
as §3, §4

T84 (KRas-G13D) = test: as above; details: colon cancer, 72 h; for inhibition at up to 10 µM: top concentration 10 μM, read-out: Maximum inhibition %
Excerpt: as §7, §8, §1
as §2, with “The test compound solution in culture medium was prepared, the top concentration was 10 μM, serially diluted at a dilution factor of 3.16 to afford 9 concentrations. 10” for “10”
as §3, §4

H1373 (KRas-G12C) = test: as above; details: Homo sapiens, NCI-H1373, lung cancer, 72 h; for inhibition at up to 10 µM: top concentration 10 μM, read-out: Maximum inhibition %
Excerpt: as §7, §8, §1
as §2, with “The test compound solution in culture medium was prepared, the top concentration was 10 μM, serially diluted at a dilution factor of 3.16 to afford 9 concentrations. 10” for “10”
as §3, §4

MIA-PaCa-2 (KRas-G12C) = test: as above; details: Homo sapiens, pancreatic cancer, 72 h; for inhibition at up to 10 µM: top concentration 10 μM, read-out: Maximum inhibition %
Excerpt: as §7, §8, §1
as §2, with “The test compound solution in culture medium was prepared, the top concentration was 10 μM, serially diluted at a dilution factor of 3.16 to afford 9 concentrations. 10” for “10”
as §3, §4

| Structure (SMILES) | IC50 (BaF3-KRas-G12C-H95D) [nM] | IC50 (BaF3-KRas-G12C-Y96D) [nM] | IC50 (BaF3-KRas-G12C-R68S) [nM] | IC50 (BaF3-KRas-G12C-Y96C) [nM] | IC50 (BaF3-KRas-G12C-H95Q) [nM] | IC50 (SW837 (KRas-G12C); read-out: Absolute IC50) [nM] | IC50 (SW837 (KRas-G12C); read-out: Relative IC50) [nM] | inhibition at up to 10 µM (SW837 (KRas-G12C)) [%] | IC50 (HCT116 (KRas-G13D); read-out: Absolute IC50) [nM] | IC50 (HCT116 (KRas-G13D); read-out: Relative IC50) [nM] | inhibition at up to 10 µM (HCT116 (KRas-G13D)) [%] | IC50 (H23 (KRas-G12C); read-out: Absolute IC50) [nM] | IC50 (H23 (KRas-G12C); read-out: Relative IC50) [nM] | inhibition at up to 10 µM (H23 (KRas-G12C)) [%] | IC50 (Kyse-410 (KRas-G12C); read-out: Absolute IC50) [nM] | IC50 (Kyse-410 (KRas-G12C); read-out: Relative IC50) [nM] | inhibition at up to 10 µM (Kyse-410 (KRas-G12C)) [%] | inhibition at up to 10 µM (A549 (KRasG12S)) [%] | IC50 (A549 (KRasG12S); read-out: Absolute IC50) [nM] | IC50 (A549 (KRasG12S); read-out: Relative IC50) [nM] | other results |
| --- | --- | --- | --- | --- | --- | --- | --- | --- | --- | --- | --- | --- | --- | --- | --- | --- | --- | --- | --- | --- | --- |
| C=CC(=O)N1CCN(c2ncnc3c(F)c(-c4ccc(F)c5sc(N)nc45)c(Cl)cc23)CC1 [Ref. Comp. A, reference compound] | 150 | 3240 | 1790 | 550 | 120 | > 10000 | 18 | 48.6 | > 10000 | > 10000 | 29.3 | 521 | 320 | 85.9 | 7240 | 5630 | 58.3 | 19.7 | > 10000 | > 10000 | IC50 (T84 (KRas-G13D); read-out: Absolute IC50): > 10000 nM; IC50 (T84 (KRas-G13D); read-out: Relative IC50): > 10000 nM; inhibition at up to 10 µM (T84 (KRas-G13D)): 4.59%; IC50 (H1373 (KRas-G12C); read-out: Absolute IC50): 3240 nM; IC50 (H1373 (KRas-G12C); read-out: Relative IC50): 1920 nM; inhibition at up to 10 µM (H1373 (KRas-G12C)): 65.2%; IC50 (MIA-PaCa-2 (KRas-G12C); read-out: Absolute IC50): 92 nM; IC50 (MIA-PaCa-2 (KRas-G12C); read-out: Relative IC50): 41 nM; inhibition at up to 10 µM (MIA-PaCa-2 (KRas-G12C)): 74.5% |
| C=CC(=O)N1CCN(c2c(C#N)cnc3c(F)c(-c4ccc(F)c5sc(N)nc45)c(Cl)cc23)CC1 [Example 9, 4-(4-Acryloylpiperazin-1-yl)-7-(2-amino-7-fluorobenzo[d]thiazol-4-yl)-6-chloro-8-fluoroquinoline-3-carbonitrile] | 100 | 1290 | 560 | 310 | 91 | 431 | 17 | 60 | 7060 | 5890 | 62 | 273 | 205 | 94.4 | 1570 | 2040 | 77.5 | 44.1 | > 10000 | > 10000 | IC50 (T84 (KRas-G13D); read-out: Absolute IC50): > 10000 nM; IC50 (T84 (KRas-G13D); read-out: Relative IC50): > 10000 nM; inhibition at up to 10 µM (T84 (KRas-G13D)): 14.7%; IC50 (H1373 (KRas-G12C); read-out: Absolute IC50): 1510 nM; IC50 (H1373 (KRas-G12C); read-out: Relative IC50): 1640 nM; inhibition at up to 10 µM (H1373 (KRas-G12C)): 80.3%; IC50 (MIA-PaCa-2 (KRas-G12C); read-out: Absolute IC50): 81 nM; IC50 (MIA-PaCa-2 (KRas-G12C); read-out: Relative IC50): 36 nM; inhibition at up to 10 µM (MIA-PaCa-2 (KRas-G12C)): 85.9% |
